# Measurements reported in ChEMBL document CHEMBL1201862, “PubChem BioAssay data set” (2004).
#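 Cultured in 96-well plates, cells were exposed to test compound for 48 hours across five concentrations. At the GI50, growth is halved.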 Activity calls are given as the source filed them. Rule as the data show it: active = GI50 up to about 1.1 µM and inactive = higher.
# What was measured:
# Test in all cases: inhibition of tumour cell growth, NCI panel, 48 h
# [1] = tested on: U-251
# [2] = tested on: HOP-62
# [3] = tested on: UACC-257
# [4] = tested on: RXF 393
# [5] = tested on: SF-268
# [6] = tested on: SF-539
# [7] = tested on: XF498
# [8] = tested on: IGROV-1
# [9] = tested on: HCT-116
# [10] = tested on: SR
# [11] = tested on: LXFL 529
# [12] = tested on: Malme-3M
# [13] = tested on: K562
# [14] = tested on: M14
# [15] = tested on: M19-MEL
# [16] = tested on: OVCAR-8
# [17] = tested on: SNB-19
# [18] = tested on: HCC 2998
# [19] = tested on: SNB-78
# [20] = tested on: A498
# [21] = tested on: HOP-18
# [22] = tested on: CCRF-CEM
# [23] = tested on: RPMI-8226
# [24] = tested on: SK-OV-3
# [25] = tested on: SF-295
# [26] = tested on: SNB-75
# [27] = tested on: DLD-1
# [28] = tested on: SK-MEL-2
# [29] = tested on: SK-MEL-5
# [30] = tested on: A549
# [31] = tested on: HT-29
# [32] = tested on: 786-0
# [33] = tested on: SN12C
# [34] = tested on: SW-620
# [35] = tested on: ACHN
# [36] = tested on: OVCAR-5
# [37] = tested on: NCI-H23
# [38] = tested on: NCI-H460
# [39] = tested on: NCI-H226
# [40] = tested on: HCT-15
# [41] = tested on: EKVX
# [42] = tested on: UO-31
# [43] = tested on: KM-20L2
# [44] = tested on: TK-10
# [45] = tested on: RXF 631
# [46] = tested on: SK-MEL-28
# [47] = tested on: MOLT-4
# [48] = tested on: KM12
# [49] = tested on: NCI-H522
structure (smiles),measurement,setting,value
CC(C)(C)C(=O)/C=C/c1cccc(Oc2ccccc2)c1,GI50,[1],11.3 µM (inactive)
same,GI50,[2],45 µM (inactive)
same,GI50,[3],14 µM (inactive)
same,GI50,[4],15 µM (inactive)
same,GI50,[5],> 10 µM (inactive)
same,GI50,[6],20.1 µM (inactive)
same,GI50,[7],18.8 µM (inactive)
same,GI50,[8],28.2 µM (inactive)
same,GI50,[9],10.5 µM (inactive)
same,GI50,[10],4.2 µM (inactive)
same,GI50,[11],18.1 µM (inactive)
same,GI50,[12],18.8 µM (inactive)
same,GI50,[13],5.93 µM (inactive)
same,GI50,[14],18.6 µM (inactive)
same,GI50,[15],16.9 µM (inactive)
same,GI50,[16],13.6 µM (inactive)
same,GI50,[17],15.5 µM (inactive)
same,GI50,[18],19 µM (inactive)
same,GI50,[19],14.2 µM (inactive)
same,GI50,[20],20 µM (inactive)
same,GI50,[21],16.6 µM (inactive)
same,GI50,[22],4.08 µM (inactive)
same,GI50,[23],3.94 µM (inactive)
same,GI50,[24],41 µM (inactive)
same,GI50,[25],11.8 µM (inactive)
same,GI50,[26],12.4 µM (inactive)
same,GI50,[27],11.5 µM (inactive)
same,GI50,[28],13.1 µM (inactive)
same,GI50,[29],14.4 µM (inactive)
same,GI50,[30],21.1 µM (inactive)
same,GI50,[31],9.12 µM (inactive)
same,GI50,[32],16.7 µM (inactive)
same,GI50,[33],13.2 µM (inactive)
same,GI50,[34],> 10 µM (inactive)
same,GI50,[35],15.2 µM (inactive)
same,GI50,[36],18.4 µM (inactive)
same,GI50,[37],> 10 µM (inactive)
same,GI50,[38],16 µM (inactive)
same,GI50,[39],18.2 µM (inactive)
same,GI50,[40],19.4 µM
same,GI50,[41],18.7 µM (inactive)
same,GI50,[42],14.4 µM (inactive)
same,GI50,[43],14.3 µM (inactive)
same,GI50,[44],> 10 µM (inactive)
same,GI50,[45],28.1 µM (inactive)
same,GI50,[46],16.4 µM (inactive)
same,GI50,[47],14.6 µM (inactive)
same,GI50,[48],11.6 µM (inactive)
same,GI50,[49],15.3 µM (inactive)
